Experimental data taken from patent US20160022675A1, “PROCESSES FOR PREPARING TETRAHYDROISOQUINOLINES” (BRISTOL-MYERS SQUIBB COMPANY, priority 2013, published 2016).
Read-outs that look alike come from different tables or passages of the source.

Tests used:
[1] = molecular target: T1, SERT (Mus musculus, UniProt Q60857); experiment: SERT occupancy in the brain, mouse; type: in vivo
T1 construct: from tissue; host or cells: mouse brain
Description: (§1) The effects of Compound 1-(4S) in the mouse tail suspension model of depression and target site occupancy were assessed to compare occupancies associated with the behavioral response. The mouse tail suspension model is known the art. […] The lowest effective dose of Compound 1-(4S), 0.3 mg/kg, PO, decreased immobility by 77% relative to vehicle-treated controls. […] Administration of Compound 1-(4S) led to dose-dependent occupancy of SERT, NET, and DAT binding sites in the brain. At the lowest behaviorally-effective dose (0.3 mg/kg), occupancies were 86±1% of SERT, 76±3% of NET, and 28±3% of DAT. At 1 mg/kg, occupancies were 89±1%, 82±1% and 54±3% at SERT, NET, and DAT, respectively. Pharmacokinetics and pharmacodynamics (PD) in mouse, rat, and dog focused primarily on DAT occupancy since SERT and NET occupancies were saturated by drug for most, if not all, of the times studied. DAT occupancy increased as a function of increasing plasma exposure. The DAT occupancy to total plasma level could be fitted using a single binding site model and plasma level ED50 (the dose producing 50% effect) values could be calculated.
(§2) To better understand the margin between doses of Compound 1-(4S) that are effective in the mouse tail suspension models and those that lead to monoamine-related side effects, locomotor activity was examined to assess psychostimulant properties and stereotypy was examined to assess more severe DA-related side effects. Increased body temperature, another effect that has been attributed to DA pharmacology, was also studied. In the mouse, Compound 1-(4S) increased locomotor activity and stereotypy scores at doses of 3.0 mg/kg and 10 mg/kg, respectively. Thus, the margin between the Compound 1-(4S) effective dose in the mouse tail suspension and increased locomotor activity was 10-fold and the margin versus activity in stereotypy was 30-fold. The thermogenic effect of Compound 1-(4S) was studied in mice and rats by measuring changes in rectal temperature following administration of the compound. […] The onset of the thermogenesis was earlier as the dose was increased. […]

[2] = molecular target: T2, NET (Mus musculus, UniProt O55192); experiment: NET occupancy in the brain, mouse; type: in vivo
T2 construct: from tissue; host or cells: mouse brain
Description: as §1, §2

[3] = molecular target: DAT (Canis lupus familiaris, UniProt B6EUL3); experiment: DAT occupancy, dog; type: in vivo; settings: single binding site model, read-out: total plasma concentration producing 50% effect (EC50), DAT occupancy
Description: as §1

[4] = tested on: rectal temperature; experiment: Thermogenic effect (rectal temperature), mouse; type: in vivo; settings: 4 hours after doses of 1, 3, and 10 mg/kg
Text: To better understand the margin between doses of Compound 1-(4S) that are effective in the mouse tail suspension models and those that lead to monoamine-related side effects, locomotor activity was examined to assess psychostimulant properties and stereotypy was examined to assess more severe DA-related side effects. Increased body temperature, another effect that has been attributed to DA pharmacology, was also studied. In the mouse, Compound 1-(4S) increased locomotor activity and stereotypy scores at doses of 3.0 mg/kg and 10 mg/kg, respectively. Thus, the margin between the Compound 1-(4S) effective dose in the mouse tail suspension and increased locomotor activity was 10-fold and the margin versus activity in stereotypy was 30-fold. The thermogenic effect of Compound 1-(4S) was studied in mice and rats by measuring changes in rectal temperature following administration of the compound. […] The onset of the thermogenesis was earlier as the dose was increased. The levels of SERT and NET occupancy were over 80% and appeared saturated across the doses tested. The DAT occupancy was dose-dependent, with 55±5.7% at 1.0 mg/kg, 74±6% at 3.0 mg/kg, and 83±0.8% at 10 mg/kg. […] The onset of the temperature increase was earlier at the highest dose of 10 mg/kg. […] The DAT occupancy was 37±8.3%, 55±5.2%, and 71±1.7% at 1.0, 3.0, and 10 mg/kg, respectively. […]

[5] = tested on: cocaine-lever responding; settings: rat, in vivo; for cocaine-lever responding: po
Description: Compound 1-(4S) was evaluated in a cocaine discrimination assay in rats, a model used to address abuse potential. The cocaine discrimination assay is known the art Compound 1-(4S) was administered and the percentage of rats that responded by selecting the cocaine-associated lever was measured. […] Since the subjective effects of cocaine are evident 15 minutes after dosing, Compound 1-(4S) was tested at the earlier time point. […] In addition, the onset of this partial effect was slower than the onset of the subjective effects of cocaine in this model.

[6] = molecular target: T3, DAT (Homo sapiens, UniProt Q01959); experiment: [3H]DA uptake into HEK293/hDAT cells; type: cell-based; design: expressed in transfected cells; host or cells: HEK293; settings: read-out: Dopamine reuptake IC50 ([3H]DA uptake)
Text: Cell-based assays were used to determine the ability of Compound 1-(4S) to inhibit reuptake of 3H-labeled DA ([3H]DA), NE ([3H]NE), and 5-HT ([3H]5-HT).

[7] = molecular target: SERT (Homo sapiens, UniProt P31645); experiment: Competition binding, membranes from HEK cells overexpressing SERT; design: expressed in transfected cells; host or cells: HEK cells (membranes)
Description: (§3) Competition binding experiments were performed to determine the in vitro binding potencies (IC50 values) of Compound 1-(4S) for SERT, DAT, and NET. Membranes prepared from human embryonic kidney (HEK) cells overexpressing each transporter were employed. Radioligands were used at their respective affinity constant (Kd) concentrations for each transporter to enable direct comparisons of the IC50 values between assays.

[8] = molecular target: T3, DAT; experiment: Competition binding, membranes from HEK cells overexpressing DAT; design: expressed in transfected cells; host or cells: HEK cells (membranes); settings: radioligand at Kd concentration; HEK cell membranes
Description: as §3

[9] = mouse brain, 0.3 mg/kg, tail suspension study
[10] = mouse brain, 1 mg/kg, tail suspension study
[11] = mouse, thermogenesis study, across doses 1, 3, 10 mg/kg

T1 sequence (Q60857 whole entry): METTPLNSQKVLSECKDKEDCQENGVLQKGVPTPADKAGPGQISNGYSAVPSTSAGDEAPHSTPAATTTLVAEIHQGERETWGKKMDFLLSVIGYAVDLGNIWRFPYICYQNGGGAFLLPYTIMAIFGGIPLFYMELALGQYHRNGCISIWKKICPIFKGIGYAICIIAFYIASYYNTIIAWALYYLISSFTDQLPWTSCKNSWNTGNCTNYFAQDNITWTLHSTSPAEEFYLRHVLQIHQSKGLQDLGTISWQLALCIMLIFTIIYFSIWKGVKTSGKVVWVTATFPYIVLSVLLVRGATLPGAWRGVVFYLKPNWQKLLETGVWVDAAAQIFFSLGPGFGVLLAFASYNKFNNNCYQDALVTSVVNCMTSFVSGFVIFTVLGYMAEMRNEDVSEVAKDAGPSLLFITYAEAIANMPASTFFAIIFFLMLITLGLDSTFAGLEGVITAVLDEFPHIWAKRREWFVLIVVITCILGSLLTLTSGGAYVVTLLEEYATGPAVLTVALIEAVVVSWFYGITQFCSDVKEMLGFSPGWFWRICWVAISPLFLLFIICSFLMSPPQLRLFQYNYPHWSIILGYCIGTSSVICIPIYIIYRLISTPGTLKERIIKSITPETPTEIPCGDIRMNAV
T2 sequence (O55192 whole entry): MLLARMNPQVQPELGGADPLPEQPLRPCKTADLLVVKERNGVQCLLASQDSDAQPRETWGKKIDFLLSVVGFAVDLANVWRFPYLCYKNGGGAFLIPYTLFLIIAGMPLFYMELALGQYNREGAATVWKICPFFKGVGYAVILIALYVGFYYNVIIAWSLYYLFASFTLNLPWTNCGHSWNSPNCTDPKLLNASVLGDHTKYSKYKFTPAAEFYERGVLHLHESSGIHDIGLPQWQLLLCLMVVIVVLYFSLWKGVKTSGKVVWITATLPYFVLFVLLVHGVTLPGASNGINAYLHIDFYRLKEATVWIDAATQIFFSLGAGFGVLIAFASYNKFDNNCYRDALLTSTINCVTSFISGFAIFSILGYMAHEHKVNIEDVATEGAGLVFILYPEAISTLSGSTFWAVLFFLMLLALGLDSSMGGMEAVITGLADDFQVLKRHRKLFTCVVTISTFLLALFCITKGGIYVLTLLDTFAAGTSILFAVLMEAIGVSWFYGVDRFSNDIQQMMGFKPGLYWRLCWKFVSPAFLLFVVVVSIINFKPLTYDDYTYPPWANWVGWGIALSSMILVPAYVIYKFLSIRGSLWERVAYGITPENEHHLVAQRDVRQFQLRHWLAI
T3 sequence (Q01959 whole entry): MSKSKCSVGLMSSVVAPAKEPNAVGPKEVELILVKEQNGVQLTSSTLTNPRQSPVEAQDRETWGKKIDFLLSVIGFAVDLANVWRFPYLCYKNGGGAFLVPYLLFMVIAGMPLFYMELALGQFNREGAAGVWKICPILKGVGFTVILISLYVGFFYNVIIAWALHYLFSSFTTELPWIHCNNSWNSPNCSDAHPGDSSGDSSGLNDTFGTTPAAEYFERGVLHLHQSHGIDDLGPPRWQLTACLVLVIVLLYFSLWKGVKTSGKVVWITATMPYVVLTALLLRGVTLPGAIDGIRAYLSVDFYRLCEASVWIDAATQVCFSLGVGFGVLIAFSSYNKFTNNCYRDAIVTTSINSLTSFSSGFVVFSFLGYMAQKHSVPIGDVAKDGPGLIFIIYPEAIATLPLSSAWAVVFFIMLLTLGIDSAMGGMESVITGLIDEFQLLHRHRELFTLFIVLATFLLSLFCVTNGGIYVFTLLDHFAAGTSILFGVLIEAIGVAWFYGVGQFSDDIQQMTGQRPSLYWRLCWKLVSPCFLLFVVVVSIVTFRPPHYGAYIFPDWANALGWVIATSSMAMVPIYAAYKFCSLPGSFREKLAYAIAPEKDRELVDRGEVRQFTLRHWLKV
SERT (Homo sapiens, UniProt P31645), sequence (P31645 whole entry): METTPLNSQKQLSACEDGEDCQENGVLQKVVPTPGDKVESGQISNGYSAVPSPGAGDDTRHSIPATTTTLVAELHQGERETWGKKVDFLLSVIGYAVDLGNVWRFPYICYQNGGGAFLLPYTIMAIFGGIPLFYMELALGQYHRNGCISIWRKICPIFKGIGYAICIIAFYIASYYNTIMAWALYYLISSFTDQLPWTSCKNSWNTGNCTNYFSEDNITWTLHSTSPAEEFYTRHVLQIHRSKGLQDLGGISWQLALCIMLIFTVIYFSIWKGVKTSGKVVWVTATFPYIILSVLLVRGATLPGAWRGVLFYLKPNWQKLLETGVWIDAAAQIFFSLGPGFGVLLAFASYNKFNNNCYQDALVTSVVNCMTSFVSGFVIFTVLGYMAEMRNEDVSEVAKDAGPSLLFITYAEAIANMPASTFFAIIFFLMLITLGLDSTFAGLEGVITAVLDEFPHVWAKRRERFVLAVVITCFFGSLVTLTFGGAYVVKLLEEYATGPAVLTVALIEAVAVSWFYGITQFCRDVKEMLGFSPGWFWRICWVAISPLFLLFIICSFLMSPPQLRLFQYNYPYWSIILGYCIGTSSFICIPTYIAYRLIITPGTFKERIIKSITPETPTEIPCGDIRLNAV
DAT (Canis lupus familiaris, UniProt B6EUL3), sequence (B6EUL3 1-617): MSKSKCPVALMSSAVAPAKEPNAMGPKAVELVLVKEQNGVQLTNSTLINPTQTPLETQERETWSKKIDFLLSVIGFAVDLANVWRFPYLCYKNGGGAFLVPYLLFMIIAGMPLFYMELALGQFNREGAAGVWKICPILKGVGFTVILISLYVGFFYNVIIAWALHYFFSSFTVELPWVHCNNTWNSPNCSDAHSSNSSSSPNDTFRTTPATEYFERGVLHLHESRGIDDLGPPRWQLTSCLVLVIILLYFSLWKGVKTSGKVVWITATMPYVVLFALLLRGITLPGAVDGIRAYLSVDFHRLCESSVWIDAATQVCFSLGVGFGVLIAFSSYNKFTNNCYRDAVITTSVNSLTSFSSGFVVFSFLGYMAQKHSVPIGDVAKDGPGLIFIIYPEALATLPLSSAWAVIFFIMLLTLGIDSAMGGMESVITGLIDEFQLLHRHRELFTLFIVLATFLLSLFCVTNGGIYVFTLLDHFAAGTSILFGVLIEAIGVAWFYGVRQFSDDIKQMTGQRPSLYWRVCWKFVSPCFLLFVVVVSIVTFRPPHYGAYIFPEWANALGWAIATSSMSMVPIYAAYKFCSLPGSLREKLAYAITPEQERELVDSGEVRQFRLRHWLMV

Q: For `CN1Cc2cc(-c3ccc(N)nn3)ccc2[C@H](c2ccc3ccccc3c2)C1` [Compound 1-(4S), 6-[(4S)-1,2,3,4-tetrahydro-2-methyl-4-(2-naphthalenyl)-7-isoquinolinyl]-3-pyridazinamine], which receptor occupancy at 0.3 mg/kg [1, 9] is on record?
A: 86 ± 1%

Q: What about the receptor occupancy at 1 mg/kg [1, 10] of the same molecule?
A: 89 ± 1%

Q: And the SERT occupancy [1, 11]?
A: over 80%

Q: And the receptor occupancy at 0.3 mg/kg [2, 9]?
A: 76 ± 3%

Q: And the receptor occupancy at 1 mg/kg [2, 10]?
A: 82 ± 1%

Q: What about the NET occupancy [2, 11] of the same molecule?
A: over 80%

Q: And the EC50 [3]?
A: 103 nM

Q: What about the “change in rectal temperature” value [4] of the same molecule?
A: significant increases

Q: And the “substitution for the cocaine stimulus” value [5]?
A: partially substituted for the cocaine stimulus

Q: What about the cocaine-lever responding ([5]; 0.1 mg/kg, 60 min) of the same molecule?
A: less than 1%

Q: And the cocaine-lever responding ([5]; 0.3 mg/kg, 15 min)?
A: 11%

Q: And the cocaine-lever responding ([5]; 0.3 mg/kg, 60 min)?
A: 53%

Q: And the cocaine-lever responding ([5]; 1 mg/kg, 15 min)?
A: 10%

Q: What about the cocaine-lever responding ([5]; 3 mg/kg, 15 min) of the same molecule?
A: 28%

Q: What about the IC50 [6] of the same molecule?
A: 31.5 ± 2.5 nM

Q: What about the IC50 [7] of the same molecule?
A: 1.08 ± 0.09 nM

Q: And the IC50 [8]?
A: 5.67 ± 0.36 nM
